In paper PMC12748266, “Testing antimicrobial peptides inhibiting protein synthesis in living E. coli and K. pneumoniae using bio-orthogonal non-canonical amino-acid tagging” (Frontiers in Microbiology, 2025):
≈ marks a conversion by molar mass, not a printed value. Where two headings read alike, the source gives them in different places. No end group written: not given here.

Assays:
Format in all cases: cell-based, Escherichia coli
[1] = tested on: E. coli ATCC 25922; test: Cell membrane permeabilization, propidium iodide flow cytometry; settings: compound at its MIC, 40 min, 5 × 10^6 CFU/mL, supplemented M9, mean of n = 3
Description: Membrane permeabilization of bacteria was then assessed by incubating bacteria at 37 °C, in a final volume of 1 mL, with varying concentrations of each peptide or antibiotic used for the BONCAT assay. 5 min before the ending of the selected incubation time (40 min), propidium iodide probe was added to the samples to a final concentration of 10 μg/mL before analysis using a flow cytometer. A positive control consisted of E. coli cells dehydrated with ethanol (as described above), while untreated cells were used as negative control. The fluorescence of untreated cells was used to establish the gating for positive PI-stained cells. Fixed bacterial cells, subjected to the click chemistry reaction to link the Alexa Fluor azide 488 probe, were analysed by flow cytometry and, among the gates-selected ones, only those that tested positive for Propidium Iodide, and thus permeabilized, were considered for the calculation of the mean fluorescence intensity (MFI) of the Alexa Fluor azide 488.
Samples were analyzed by an Attune NxT® (ThermoFisher) equipped with a blue laser (488 nm) and photomultiplier tubes (PMTs) BL1 (525/50) and BL3 (695/40) to collect fluorescence. All parameters were set in logarithmic scale and the signals were recorded as Area. Forward scattering (FSC) was set to 300 mV, side scattering (SSC) to 350 mV and thresholds to 0.2 for FSC and 0.5 for SSC. The compensation matrix was performed according to the tool software. Hierarchical gates and acquisition flow rate (200 μL/min) were set to avoid coincident events. The files were saved as FCS 3.1 and analysed by FCS Express De Novo software v7. Flow cytometry data are presented as means ± SD from three independent experiments (n = 3).

[2] = tested on: E. coli ATCC 25922; test: microbe, parasite or virus in culture; settings: for MIC: read-out: MIC
Description: […] Each peptide, diluted at a starting concentration of 128 μM in supplemented M9 medium was added to the first column of wells of a 96-well round-bottom microplate (Sarstedt, Milan, Italy). Serially two-fold dilution (1:1) were performed across subsequent wells to a final volume of 50 μL. 50 μL of bacterial suspension (1 × 10^7 CFU/mL) were then added to each well, to a final bacterial concentration in each well to 5 × 10^6 CFU/mL per well. Untreated bacterial culture was used as growth control, while 100 μL of uninoculated supplemented M9 medium was used to verify the sterility of the medium. The plates were sealed with parafilm to minimize evaporation and incubated at 37 °C for 18 h. The minimum inhibitory concentration (MIC) was visually determined as the lowest peptide concentration in a well with no visible bacterial growth. Data are reported as the mode of at least three independent experiments.

[3] = tested on: E. coli ATCC 25922; test: Post-antibiotic effect (PAE), growth kinetics after washout; settings: 30 min treatment at MIC
Description: An overnight culture of E. coli ATCC 25922, prepared as described above, was diluted to a final concentration of 5 × 10^6 CFU/mL and then incubated at 37 °C for 30 min in the presence or absence of each peptide or antibiotic at various concentrations, with a final volume of 1 mL. To measure the post-antibiotic effect (PAE) of antimicrobials, the compounds were removed from the supernatant by centrifugation (16,000 × g for 5 min) and bacteria were washed and resuspended in 1 mL of fresh supplemented MHB medium, to promote faster growth visible as increased absorbance. 200 μL of each sample was then transferred to a 96-well round-bottom microplate (Sarstedt, Milan, Italy), which was then placed in a Nanoquant Infinite-M200Pro plate reader with stable temperature at 37 °C. Each sample was surrounded by water-filled wells to reduce its own evaporation. Optical density at 600 nm was then recorded for each sample every hour for up to 18 h. PAE was calculated according to [Holfeld et al. (2018)] as the difference between the time needed for a cell culture incubated with an antibiotic substance to reach half-maximum absorbance of the control culture and the time that the control culture needed to reach half-maximum absorbance of the stationary phase. According to this definition, the PAE of each compound (expressed as time) was calculated based on the OD₆₀₀ value of its respective replicate, which corresponded to half of the maximum absorbance reached by the control culture in the stationary phase (at 18 h). The mean PAE values (PAE in hours) of each compound, were obtained by averaging the times from the three independent experiments.

[4] = Escherichia coli, ATCC25922, 18 h, supplemented M9 medium, 5 × 10^6 CFU/mL, 18 h, 37 °C, visual, mode of at least three experiments
[5] = OD600 every hour for 18 h in MHB, mean ± SD, n = 3

Row | Compound | Membrane permeabilization (% PI +cells) [1] [%] | Membrane permeabilization (% PI +cells) ([1]; listed as Chloramphenicol) [%] | MIC ([2]; Escherichia coli, ATCC25922, 18 h, Mueller Hinton, 2,5x10^5 CFU/mL, 18 h, 37 °C, mode of at least three experiments) [µM] | MIC ([2]; Escherichia coli, ATCC25922, 18 h, Mueller Hinton, 5x10^6 CFU/mL, 18 h, 37 °C, mode of at least three experiments) [µM] | MIC [2, 4] [µM] | Fold increase in MIC on 20-fold increase in cell density ([2]; MHB, 5×10^6 vs 2,5×10^5 CFU/well) | PAE [3] | PAE [3, 5] [h] | Membrane permeabilization (% PI +cells) ([1]; listed as Rifampin) [%] | MIC ([2]; Mueller Hinton, 2,5x10^5 CFU/mL, 18 h, 37 °C, mode of at least three experiments) [µM] | MIC ([2]; Mueller Hinton, 5x10^6 CFU/mL, 18 h, 37 °C, mode of at least three experiments) [µM] | MIC ([2]; supplemented M9 medium, 5 × 10^6 CFU/mL, 18 h, 37 °C, visual, mode of at least three experiments) [µM] | MIC ([2]; ATCC 25922, 18 h) [µM]
1 | O=C(N[C@H](CO)[C@H](O)c1ccc([N+](=O)[O-])cc1)C(Cl)Cl [CHL, Chloramphenicol] | <1 | 0 | 16 (≈ 5.17 µg/mL) | 64 (≈ 20.7 µg/mL) | 32 (≈ 10.3 µg/mL) | 4-8 fold | about half an hour | 0.6 ± 1.2 |  |  |  |  | 
2 | CO[C@H]1/C=C/O[C@@]2(C)Oc3c(C)c(O)c4c(O)c(c(/C=N/N5CCN(C)CC5)c(O)c4c3C2=O)NC(=O)/C(C)=C\C=C\[C@H](C)[C@H](O)[C@@H](C)[C@@H](O)[C@@H](C)[C@H](OC(C)=O)[C@@H]1C [RIF, Rifampicin] | <1 |  |  |  | 2 (≈ 1.65 µg/mL) |  |  | 1.6 ± 1.1 | 0 |  |  |  | 
3 | RRIRPRPPRLPRPRPR [Bac7(1–16)] | <1 |  |  |  |  |  |  | 1.7 ± 0.9 |  | 1 | 2 | 1 | 
4 | RRIRPRPPRLPRPRPRPLPFPRPGPRPIPRPLPFP [Bac7(1–35)] | <1 |  |  |  |  |  | 3 h | 2.9 ± 0.5 |  |  |  |  | 1
